Results on one molecule are retold here after patent US20260248799A1, “COMBINATIONS OF RETINALDEHYDE DEHYDROGENASE 1 (RALDH1) INHIBITORS AND IMMUNOSTIMULATORS AND METHODS USING SAME” (The Trustees of the University of Pennsylvania, priority 2023, published 2026).

Data set [1] can be described thus: Pharmacokinetics IV and PO in CD-1 mice, plasma. In kind it is in vivo. The conditions noted are these: mouse plasma. The text has this: The PK studies were done at NIH or a commercial CRO—Pharmacon using their in-house standard protocol. […] For C99, IV and PO, performed at NIH using CD-1 mice; formulation: 20% HPbCD in saline.
Data set [2] has as its system macrophages from primary human monocytes. The data set is described as follows: Numbers of live monocyte-derived macrophages in vitro. In kind it is cell-based. Conditions: C86 treated TCM or BMS493; three days. Here is the method: FIGS. 24A-24E: Raldh1-INH blocks tumor supportive functions of monocytes and macrophages. FIG. 24A: Circulating primary human monocytes were collected from donors and cultured with MCSF (50 ng/mL) to generate macrophages. On day 3 of these cultures, DMSO or RA (100 nmol/L) was added to generate control monocyte-derived macrophages (Control-MoDM) or RA monocyte-derived macrophages (RA-MoDM), respectively. On day 7 of these cultures, macrophages were collected for each well after washing with 1×PBS, mixed with Huh7 cells at approximately 50:50 ratio, and the mix injected into the flanks of NU/J mice. Huh7 tumors cells that were not mixed with any macrophages before flank injection served as an additional control. Tumor volume was measured every 2 days (left graph). 19 days after tumor injection, mice were sacrificed and tumor weight (right graph) was measured. […] Three or more independent experiments were performed with at least three replicates per experimental group. Unpaired t test, two-tailed. […] Tumor growth was monitored daily (left graph). 13 days after tumor cell transplantation, mice were sacrificed and tumor weight measured (right graph). […] Three days later, cells were harvested, counted, and stained with PI for FCS analyses. […] Cell proliferation was measured by counting live cell numbers (y-axis). […] 72 hours later, the cells were washed, counted, and analyzed by FCS. […]

The target of data set [3] is T1, Protein Tyrosine Kinase, Insulin Receptor (Homo sapiens, UniProt P06213).
T1 construct: Eurofins Cerep Panlabs (contract panel)
The data set is described as follows: Safetyscreen: Insulin Receptor kinase. It is filed as biochemical. The conditions noted are these: read-out: % Inh. Protein Tyrosine Kinase, Insulin Receptor.

Data set [4] has as its target T2, Protein Tyrosine Kinase, LCK (Homo sapiens, UniProt P06239).
T2 construct: Eurofins Cerep Panlabs (contract panel)
In words: Safetyscreen: LCK. It is filed as biochemical. Conditions: read-out: % Inh. Protein Tyrosine Kinase, LCK.

Data set [5] deals with T3, Adrenergic α2A (Homo sapiens, UniProt P08913).
T3 construct: Eurofins Cerep Panlabs (contract panel)
In words: Safetyscreen: Adrenergic α2A. The conditions noted are these: read-out: % Inh. Adrenergic α2A. It is filed as binding.

Data set [6] addresses T4, Chemokine CCR1 (Homo sapiens, UniProt P32246).
T4 construct: purchased Eurofins Cereps Panlabs
In words: Safetyscreen: CCR1. It is filed as binding. The conditions noted are these: read-out: % Inh. Chemokine CCR1.

The test system of data set [7] is Glutamate, NMDA, Agonism. The data set is described as follows: Safetyscreen: NMDA, Agonism. It is filed as binding, rat. The conditions noted are these: 10 μM.
In data set [8] the target is T5, Melanocortin MC1 (Homo sapiens, UniProt Q01726).
T5 construct: purchased Eurofins Cereps Panlabs
In words: Safetyscreen: MC1. Conditions: read-out: % Inh. Melanocortin MC1. It is filed as binding.

Data set [9] concerns the target T6, Muscarinic M3 (Homo sapiens, UniProt P20309).
T6 construct: Eurofins Cereps Panlabs (contract panel)
The data set is described as follows: Safetyscreen: Muscarinic M3. In kind it is binding. Conditions: read-out: % Inh. Muscarinic M3.

The target in data set [10] is T7, Serotonin (5-Hydroxytryptamine) 5-HT1A (Homo sapiens, UniProt P08908).
T7 construct: Eurofins Cereps Panlabs (contract panel)
The data set is described as follows: Safetyscreen: 5-HT1A. It is filed as binding. Conditions: read-out: % Inh. Serotonin (5-Hydroxytryptamine) 5-HT1A.

The target in data set [11] is T8, Transporter, Dopamine (DAT) (Homo sapiens, UniProt Q01959).
T8 construct: purchased Eurofins Cereps Panlabs
The data set is described as follows: Safetyscreen: DAT. It is filed as binding. The conditions noted are these: read-out: % Inh. Transporter, Dopamine (DAT).

For data set [12], the target named is T9, Transporter, Norepinephrine (NET) (Homo sapiens, UniProt P23975).
T9 construct: purchased Eurofins Cereps Panlabs
In words: Safetyscreen: NET. In kind it is binding. The conditions noted are these: read-out: % Inh. Transporter, Norepinephrine (NET).

The mark [13] stands for this setting: intravenous administration, 2 mg/kg.

T1 sequence (P06213 28-1382): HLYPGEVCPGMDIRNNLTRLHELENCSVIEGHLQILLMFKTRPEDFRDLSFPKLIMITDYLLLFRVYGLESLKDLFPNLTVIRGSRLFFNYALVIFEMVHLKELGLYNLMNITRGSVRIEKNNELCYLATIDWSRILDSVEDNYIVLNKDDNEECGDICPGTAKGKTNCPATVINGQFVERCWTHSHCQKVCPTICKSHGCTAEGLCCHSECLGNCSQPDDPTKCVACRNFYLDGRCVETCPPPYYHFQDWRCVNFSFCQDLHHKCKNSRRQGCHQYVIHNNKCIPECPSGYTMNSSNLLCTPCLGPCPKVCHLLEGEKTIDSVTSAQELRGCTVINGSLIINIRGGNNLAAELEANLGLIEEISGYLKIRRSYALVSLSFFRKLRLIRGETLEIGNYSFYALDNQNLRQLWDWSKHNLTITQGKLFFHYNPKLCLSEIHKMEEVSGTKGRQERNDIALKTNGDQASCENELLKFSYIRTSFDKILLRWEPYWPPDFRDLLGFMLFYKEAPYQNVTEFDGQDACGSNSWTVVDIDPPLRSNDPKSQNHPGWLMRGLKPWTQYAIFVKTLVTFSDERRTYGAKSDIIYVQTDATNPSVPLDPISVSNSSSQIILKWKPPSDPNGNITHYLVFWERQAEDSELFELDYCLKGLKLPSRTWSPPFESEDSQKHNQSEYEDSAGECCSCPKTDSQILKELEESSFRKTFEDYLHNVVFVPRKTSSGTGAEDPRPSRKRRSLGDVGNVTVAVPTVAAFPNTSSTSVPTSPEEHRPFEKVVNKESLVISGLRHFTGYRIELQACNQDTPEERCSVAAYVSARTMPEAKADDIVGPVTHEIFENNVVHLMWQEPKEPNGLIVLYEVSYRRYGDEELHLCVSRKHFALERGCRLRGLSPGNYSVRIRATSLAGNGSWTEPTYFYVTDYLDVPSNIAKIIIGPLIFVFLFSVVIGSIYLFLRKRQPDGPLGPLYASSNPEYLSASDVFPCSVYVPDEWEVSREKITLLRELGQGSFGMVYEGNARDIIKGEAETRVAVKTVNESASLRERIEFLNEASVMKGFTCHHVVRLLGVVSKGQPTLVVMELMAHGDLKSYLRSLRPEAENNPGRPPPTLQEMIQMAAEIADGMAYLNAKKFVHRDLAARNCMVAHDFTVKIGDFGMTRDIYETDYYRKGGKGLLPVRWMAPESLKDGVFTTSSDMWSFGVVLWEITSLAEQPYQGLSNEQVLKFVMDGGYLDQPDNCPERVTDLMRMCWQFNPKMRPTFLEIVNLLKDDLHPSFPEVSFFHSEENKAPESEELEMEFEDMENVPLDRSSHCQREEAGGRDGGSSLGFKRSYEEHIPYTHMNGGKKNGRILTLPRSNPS
T5 sequence (Q01726 whole entry): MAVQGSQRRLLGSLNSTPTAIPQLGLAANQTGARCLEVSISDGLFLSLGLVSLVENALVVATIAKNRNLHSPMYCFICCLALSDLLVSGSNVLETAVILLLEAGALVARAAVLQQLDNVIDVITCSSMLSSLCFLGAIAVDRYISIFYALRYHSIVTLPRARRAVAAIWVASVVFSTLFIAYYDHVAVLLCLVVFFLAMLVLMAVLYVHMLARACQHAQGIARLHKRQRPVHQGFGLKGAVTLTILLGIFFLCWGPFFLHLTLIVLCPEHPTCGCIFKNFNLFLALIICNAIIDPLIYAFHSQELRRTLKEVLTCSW
T4 sequence (P32246 whole entry): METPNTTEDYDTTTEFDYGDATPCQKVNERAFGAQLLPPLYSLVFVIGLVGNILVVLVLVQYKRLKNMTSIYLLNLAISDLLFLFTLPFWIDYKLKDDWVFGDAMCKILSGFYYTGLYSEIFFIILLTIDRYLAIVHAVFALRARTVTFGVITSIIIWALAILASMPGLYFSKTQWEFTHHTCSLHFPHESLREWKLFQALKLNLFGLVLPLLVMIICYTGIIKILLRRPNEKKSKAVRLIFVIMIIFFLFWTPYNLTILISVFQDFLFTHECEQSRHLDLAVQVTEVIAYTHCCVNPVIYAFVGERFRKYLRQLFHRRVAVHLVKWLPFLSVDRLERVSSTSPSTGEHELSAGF
T2 sequence (P06239 whole entry): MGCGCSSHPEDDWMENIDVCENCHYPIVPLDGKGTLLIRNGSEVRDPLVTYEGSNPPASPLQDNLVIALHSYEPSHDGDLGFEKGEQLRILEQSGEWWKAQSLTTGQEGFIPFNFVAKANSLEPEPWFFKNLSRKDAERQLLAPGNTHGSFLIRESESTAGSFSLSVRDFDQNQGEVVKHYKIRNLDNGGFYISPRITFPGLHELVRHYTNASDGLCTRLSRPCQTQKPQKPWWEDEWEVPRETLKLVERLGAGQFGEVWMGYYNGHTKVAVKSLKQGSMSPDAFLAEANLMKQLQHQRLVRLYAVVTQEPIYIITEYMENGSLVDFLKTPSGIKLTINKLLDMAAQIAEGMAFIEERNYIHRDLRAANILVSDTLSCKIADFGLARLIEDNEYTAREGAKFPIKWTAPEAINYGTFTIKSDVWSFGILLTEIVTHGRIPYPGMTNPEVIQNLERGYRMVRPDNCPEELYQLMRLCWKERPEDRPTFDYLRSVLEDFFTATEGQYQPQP
T8 sequence (Q01959 whole entry): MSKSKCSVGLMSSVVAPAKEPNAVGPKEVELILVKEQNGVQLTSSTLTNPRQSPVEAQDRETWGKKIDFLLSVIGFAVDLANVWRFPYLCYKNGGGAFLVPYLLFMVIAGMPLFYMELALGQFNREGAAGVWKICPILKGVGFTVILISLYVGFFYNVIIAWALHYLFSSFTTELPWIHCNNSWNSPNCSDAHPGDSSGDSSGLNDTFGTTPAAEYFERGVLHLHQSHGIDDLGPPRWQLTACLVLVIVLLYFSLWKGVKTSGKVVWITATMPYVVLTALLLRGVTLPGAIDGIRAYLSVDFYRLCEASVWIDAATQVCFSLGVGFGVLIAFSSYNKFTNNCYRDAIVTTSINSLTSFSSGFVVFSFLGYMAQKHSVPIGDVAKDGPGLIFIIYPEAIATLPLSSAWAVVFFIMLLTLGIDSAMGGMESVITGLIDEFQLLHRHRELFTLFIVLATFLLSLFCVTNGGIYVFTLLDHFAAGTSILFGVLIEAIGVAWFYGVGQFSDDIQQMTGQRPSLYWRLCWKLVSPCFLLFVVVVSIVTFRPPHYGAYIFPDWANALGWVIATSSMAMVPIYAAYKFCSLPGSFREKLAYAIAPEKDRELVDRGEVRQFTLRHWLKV
T9 sequence (P23975 whole entry): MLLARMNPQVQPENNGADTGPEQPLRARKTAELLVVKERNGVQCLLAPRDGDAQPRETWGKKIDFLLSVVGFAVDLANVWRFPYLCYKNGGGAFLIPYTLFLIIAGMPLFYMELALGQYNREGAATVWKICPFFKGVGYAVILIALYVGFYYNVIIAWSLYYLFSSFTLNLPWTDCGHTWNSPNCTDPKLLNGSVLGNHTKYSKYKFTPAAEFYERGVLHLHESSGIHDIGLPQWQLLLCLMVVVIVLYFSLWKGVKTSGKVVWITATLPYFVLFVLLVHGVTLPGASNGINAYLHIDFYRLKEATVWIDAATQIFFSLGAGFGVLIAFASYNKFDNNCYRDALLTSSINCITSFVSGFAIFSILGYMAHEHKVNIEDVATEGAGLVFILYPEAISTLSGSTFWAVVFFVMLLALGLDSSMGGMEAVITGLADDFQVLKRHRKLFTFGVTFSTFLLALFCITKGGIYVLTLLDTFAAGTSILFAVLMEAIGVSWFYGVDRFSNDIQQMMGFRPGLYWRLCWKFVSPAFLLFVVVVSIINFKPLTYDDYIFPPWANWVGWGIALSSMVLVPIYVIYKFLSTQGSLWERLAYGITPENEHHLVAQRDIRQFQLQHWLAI
T3 sequence (P08913 whole entry): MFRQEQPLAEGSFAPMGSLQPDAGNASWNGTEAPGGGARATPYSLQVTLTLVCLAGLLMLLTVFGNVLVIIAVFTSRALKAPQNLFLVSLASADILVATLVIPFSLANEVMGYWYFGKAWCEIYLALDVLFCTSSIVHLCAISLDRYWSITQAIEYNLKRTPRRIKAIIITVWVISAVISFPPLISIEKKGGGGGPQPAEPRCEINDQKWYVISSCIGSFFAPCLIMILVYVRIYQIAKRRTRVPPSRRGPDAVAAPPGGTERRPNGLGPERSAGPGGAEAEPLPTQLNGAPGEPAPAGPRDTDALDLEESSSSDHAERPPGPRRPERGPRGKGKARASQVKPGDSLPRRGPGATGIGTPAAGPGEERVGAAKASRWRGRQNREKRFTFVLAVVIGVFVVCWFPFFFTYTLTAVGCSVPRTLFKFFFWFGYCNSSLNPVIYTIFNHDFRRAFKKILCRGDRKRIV
T7 sequence (P08908 whole entry): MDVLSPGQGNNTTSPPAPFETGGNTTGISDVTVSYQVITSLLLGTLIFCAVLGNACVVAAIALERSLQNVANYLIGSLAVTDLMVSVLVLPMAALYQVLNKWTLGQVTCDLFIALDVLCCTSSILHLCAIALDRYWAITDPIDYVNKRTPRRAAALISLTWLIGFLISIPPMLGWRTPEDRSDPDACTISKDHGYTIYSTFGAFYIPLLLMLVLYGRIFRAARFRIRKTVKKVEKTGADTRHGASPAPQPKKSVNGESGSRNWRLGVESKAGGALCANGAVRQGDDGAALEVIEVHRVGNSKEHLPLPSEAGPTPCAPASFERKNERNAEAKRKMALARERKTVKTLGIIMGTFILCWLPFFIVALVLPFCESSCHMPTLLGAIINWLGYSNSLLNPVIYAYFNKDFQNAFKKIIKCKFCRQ

As a reminder, the Cmax is the highest concentration seen after dosing. `CS(=O)(=O)N1CCN(C(=O)c2cnc3ccc(F)cc3c2N2CCC(C#N)(c3ccccc3)CC2)CC1` [Compound C-86, 1-(6-fluoro-3-(4-(methylsulfonyl)piperazine-1-carbonyl)quinolin-4-yl)-4-phenylpiperidine-4-carbonitrile]: the “AUC0-∞” value in [1] (setting [13]) was 1141 ng·h/mL; in [1] (oral administration, 10 mg/kg), 2518 ng·h/mL. Moreover, the Cmax in [1] (setting [13]) is reported as 2350 ng/mL; in data set [1] (oral administration, 10 mg/kg), 1234 ng/mL. This molecule also registered a Vss in [1] (setting [13]) of 0.7 L/kg. The molecule further gave a F in data set [1] (oral administration, 10 mg/kg) of 44%. The “RA and tumor-CM induced increase in macrophage numbers” value in [2] was “reversed”. Moreover, the inhibition at 10 µM in data set [3] was determined as 0%; in [4], 3%; in data set [5] it was 0%; in data set [6] it was 18%; in data set [8] it was 8%; in [9] it was 5%. The inhibition at 10 µM was found to be 5% in [10], 8% in data set [11] and 35% in data set [12]. Besides, the “% Inh. Glutamate, NMDA, Agonism” value in data set [7] turned out to be 2%.
